Entries after “also recorded” stand apart in the source; their conditions may differ.
What was measured:
[1] = literature, cited from earlier work; for testicular myeloperoxidase activity: acutely; for testicular myeloperoxidase activity / long term spermatogenesis: animal models of testicular torsion
[2] = system: adhesion molecules E-selectin, ICAM-1 and VCAM-1; conditions: Saeed 2005; cited from earlier work
α7nAChR = α7nAChR (Homo sapiens, UniProt P36544); conditions: peak concentrations in smokers / levels with therapeutic dosing in humans (Campling 2013); cited from earlier work
[3] = cited from earlier work
[4] = system: CFT073 uropathogenic Escherichia coli (UPEC); conditions: kidneys harvested after the final dose of antibiotics; ceftriaxone 250 mg/kg s.c. twice daily for 5 days
Method: As previously described, female C3H/HeOuJ mice were utilized due to a high incidence of vesicoureteral reflux (VUR) (Li 2017; Murawski 2010; Bowen 2013) and reliable creation of pyelonephritis following bladder inoculation. To initiate pyelonephritis, the bladder was catheterized with a 24-gauge angiocatheter and a total volume of 100 μL of a phosphate-buffered saline containing 108 colony forming units (CFU) of CFT073 uropathogenic Escherichia coli (UPEC) was then instilled. Following the initial bladder inoculation, pyelonephritis was allowed to progress untreated for 5 days.
Following the initial 5-day incubation period, 2 mice were sacrificed to confirm infection. The remaining mice were then treated with ceftriaxone alone (control) or ceftriaxone with varenicline (treatment). All mice received 250 mg/kg of subcutaneous ceftriaxone administered twice daily for a period of 5 days. Animals in the treatment group also received a concurrent twice-daily dose of intraperitoneal varenicline (1 mg/kg) during the first 48 hours of treatment. […] Animals were sacrificed at 14 days following the initial bladder inoculation to assess short-term outcomes, while long-term outcomes were assessed 30 days following initial bladder inoculation.

[5] = Renal scar formation and trichrome collagen quantification after acute pyelonephritis; format: in vivo, C3H/HeOuJ mice; conditions: 21 days following completion of antibiotic therapy; varenicline plus ceftriaxone vs ceftriaxone alone; p=0.001
Method: To initiate pyelonephritis, the bladder was catheterized with a 24-gauge angiocatheter and a total volume of 100 μL of a phosphate-buffered saline containing […] colony forming units (CFU) of CFT073 uropathogenic Escherichia coli (UPEC) was then instilled.
Tissues were preserved in formalin for 72 hours then stored in ethanol. Sections were cut to a 5 μm thickness and stained with H&E or Masson trichrome. Photographs were obtained at 20× resolution with Olympus VS120 virtual slide microscope system. The images were then analyzed with ImageJ Fiji software in order to quantify collagen deposition as previously described (Chen 2017). As collagen deposition would be expected as long-term sequelae of IRI, the trichrome stains of the long-term specimen were examined. All artifacts from the staining process as well as gross collecting system were cropped from these images prior to analysis. A color deconvolution plugin was used to separate the trichrome images into the separate colors. Analysis was performed based upon the percentage of deposition of collagen in the green image compared to the overall area of the kidneys.
Tissues harvested 21 days following completion of antibiotic therapy were subjected to trichome staining to assess for global collagen deposition. After removing artifacts (to ensure only parenchyma was included in the analysis), a color deconvolution plugin was used for ImageJ to divide the images into the respective three colors of the trichrome stain. A threshold was set and collagen was quantified as a percentage of green color in respect to the area of the entire kidney (FIG. 13).

[6] = system: pro-fibrotic genes Col1, Col3, Vim, SMA; experiment: RT-PCR of pro-fibrotic markers in testis 30 days after torsion; format: in vivo, CD1 mice; conditions: for relative expression of collagen 1 (Col1) / relative expression of collagen 3 (Col3) / relative expression of smooth muscle actin (Sma) / relative expression of vimentin (Vim): 30 days following torsion, vs untreated
Method: (§1) Mice underwent testicular torsion as previously described (Lysiak 2001). Briefly, mice were anesthetized with isoflurane over a heating pad. The right testis was delivered through a low scrotal incision and rotated counterclockwise 720 degrees to induce ischemia for 2 hours. […] All animals were injected with long-acting buprenorphine (0.1 mg/kg) for long-term pain control prior to being recovered from anesthesia. Mice were euthanized either 18 hours or 30 days following torsion. Mice kept for 30 days after surgery were weighed on a weekly basis.
(§2) Cytisine (Sigma-Aldrich, St. Louis, MO) was administered intraperitoneally at a dose of 0.1 μg/gram either 1 hour before torsion or 1 hour after torsion (1 hour prior to detorsion). Varenicline ([…]) was administered as an intraperitoneal injection one hour after the onset of torsion and then continued every 12 hours for a total of 4 doses.
RNA was isolated from testis tissue using RNEasy mini kit (Qiagen, Hilden, Germany) using the manufacturer's protocol. RNA concentration was measured with Nanodrop 8000 (Thermo Scientific, Waltham, MA). cDNA was synthesized using Superscript First-Strand Synthesis system for RT-PCR (Invitrogen, Carlsbad, CA) on a GeneAmp PCR System 9700 (Applied Biosystems, Foster City, CA) Real-Real-time PCR was performed using QuantStudio 7 Flex (Applied Biosystems, Foster City, CA). Software Quantstudio Real-Time PCR Software (Thermo Fisher Scientific, Waltham, MA). TaqMan Gene Expression Assays (Applied Biosystems, Foster City, CA). Standard TaqMan primers were used for Col1, Col3, Vim, SMA.

[7] = system: CD45+ immune cells in the torsed testis; experiment: Flow cytometry of CD45+ immune cell infiltrate in testis after testicular torsion; format: in vivo, CD1 mice; conditions: cytisine 0.1 μg/gram i.p. 1 hour before torsion; 18 hours after reperfusion; vs mice without cytisine; P<0.0001
Method: (§3) Unilateral testicular torsion was induced in mature male CD1 mice by rotating the right testicle 720 degrees for 2 hours. Treatment with cytisine or varenicline was initiated one hour prior or one hour after the creation of testicular torsion. Testes were harvested 18 hours and 30 days following reperfusion. The acute inflammatory response was quantified with FACS analysis, […], reduced glutathione levels and quantification of the expression of IRI markers. Long term (30 day) outcomes were assessed by histologic evaluation, quantification of the expression of pro-fibrotic genes and measurement of testicular weight.
Mice underwent testicular torsion as previously described (Lysiak 2001). Briefly, mice were anesthetized with isoflurane over a heating pad. […]
Eighteen hours after reperfusion of the testis in the cytisine group and 48 hours after reperfusion in the varenicline group, bilateral testes were harvested, homogenized and digested with digestion solution containing 0.5% FBS, 20 mM HEPES, RPMI Medium, 0.057 U/ml DNase I, 1 mg/ml collagenase b. Cells were washed, counted with a hemocytometer and 1 million then diluted to 1 million cells per mL. […] For each sample 300,000 live cells were counted using BD FACSCalibur (BD Biosciences, San Jose, CA) and analyzed with FlowJo 9.0 software (TreeStar, Ashland, OR).

[8] = Masson trichrome staining and ImageJ quantification of collagen in testis 30 days after torsion; format: in vivo, CD1 mice; conditions: 30 days following torsion, vs untreated, cytisine p<0.01, varenicline p<0.0001
Method: as §1, §2
Testis tissue was harvested and stored in 70% ethanol. Fixation, embedding, sectioning, and staining were performed by the research pathology core at George Washington University. Sections were cut at a thickness of […]. Tissues were stained for H&E or Masson trichrome. Photographs were scanned at 20× resolution with Olympus VS120 virtual slide microscope system. TIF images were analyzed with ImageJ Fiji software as previously described (Caetano, Fronza et al. 2016). The color deconvolution plugin was used to perform ImageJ analysis on an area measuring 3000 square pixels. Automatic thresholding was performed. The amount of collagen in each area is expressed as the percentage of blue pixels in the image area taken as an average of 3 non-overlapping measurements.

[9] = Testis weight vs contralateral testis 30 days after torsion (testicular atrophy); format: in vivo, CD1 mice; conditions: 30 days after reperfusion, vs untreated
Method: as §3, §1, §2
The degree of testicular atrophy was determined by comparing the weight of the torsed testis to the contralateral control testis 30 days after reperfusion.

[10] = system: oxidative stress within the testis; experiment: Myeloperoxidase activity and reduced glutathione levels in testis after testicular torsion; format: in vivo, CD1 mice; conditions: cytisine an hour prior to onset of torsion; vs untreated controls
Method: Mice underwent testicular torsion as previously described (Lysiak 2001). Briefly, mice were anesthetized with isoflurane over a heating pad. The right testis was delivered through a low scrotal incision and rotated counterclockwise 720 degrees to induce ischemia for 2 hours. […] All animals were injected with long-acting buprenorphine (0.1 mg/kg) for long-term pain control prior to being recovered from anesthesia. […] Mice kept for 30 days after surgery were weighed on a weekly basis.
as §2
Tissues were harvested and stored at −80° C. until use. Glutathione reductase activity was measured by use of glutathione reductase assay Kit (Sigma-Aldrich, St. Louis, MO). Testis tissue was homogenized in 5% sulfosalicylic Acid (SSA) solution. Samples were then centrifuged and supernatant was reserved. Supernatants were added to a reaction mixture containing 95 mM potassium phosphate buffer, pH 7.0, 0.95 mM EDTA, 0.038 mg/mL NADPH, 0.031 mg/mL DTNB, 0.115 units/mL glutathione reductase, and 0.24% SSA. Absorbance at 412 nm was recorded. Glutathione results were expressed as nm GSH per mL sample.
Following an ischemic event, the initial inflammatory response is characterized by an increase in oxidative stress and production of reactive oxygen species. In order to determine the effect of cytisine treatment on the level of reactive oxygen species (ROS) following testicular torsion, testicular levels of myeloperoxidase (MPO), a marker of neutrophil activation, and reduced glutathione (GSH) levels (an indirect measure of oxidative stress within the testis) were measured.

[11] = administered prior to testicular reperfusion
[12] = administration prior to warm renal ischemia (Gigliotti 2013)

Sequence of α7nAChR (P36544 23-502): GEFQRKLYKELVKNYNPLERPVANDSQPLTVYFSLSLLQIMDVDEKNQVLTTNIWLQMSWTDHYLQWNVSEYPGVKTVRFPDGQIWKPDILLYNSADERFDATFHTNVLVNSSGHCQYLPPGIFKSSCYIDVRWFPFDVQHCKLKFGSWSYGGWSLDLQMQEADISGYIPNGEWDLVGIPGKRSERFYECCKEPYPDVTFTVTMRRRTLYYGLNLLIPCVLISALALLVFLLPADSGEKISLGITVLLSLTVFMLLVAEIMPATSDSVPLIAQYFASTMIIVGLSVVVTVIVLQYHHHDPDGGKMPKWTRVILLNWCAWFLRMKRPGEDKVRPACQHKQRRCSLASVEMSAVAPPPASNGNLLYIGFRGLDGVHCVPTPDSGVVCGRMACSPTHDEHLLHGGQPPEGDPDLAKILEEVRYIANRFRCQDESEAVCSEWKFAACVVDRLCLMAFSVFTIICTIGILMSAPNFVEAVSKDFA

COc1cc(C(C)=O)ccc1O [Apocynin]
testicular myeloperoxidase activity [1]: decrease testicular myeloperoxidase activity | long term spermatogenesis [1]: preserve long term spermatogenesis

CN1CCC[C@H]1c1cccnc1 [nicotine]
expression of adhesion molecules such as E-selectin, ICAM-1 and VCAM-1 [2]: decreasing the expression of adhesion molecules | activation of α7nAChR at clinically reached concentrations (α7nAChR): do not activate α7nAChR | protection of the kidney from IRI ([3]; mouse, after renal artery ligation (Sadis 2007, Yeboah 2008)): protects the mouse kidney from IRI

[Zn] [Zinc]
testicular myeloperoxidase activity [1]: decrease testicular myeloperoxidase activity | long term spermatogenesis [1]: preserve long term spermatogenesis

Cc1ccc(-c2ncc(Cl)cc2-c2ccc(S(C)(=O)=O)cc2)cn1 [Etoricoxib]
apoptosis [1, 11]: decrease apoptosis | oxidative stress [1, 11]: decrease

CO/N=C(\C(=O)N[C@@H]1C(=O)N2C(C(=O)O)=C(CSc3nc(=O)c(=O)[nH]n3C)CS[C@H]12)c1csc(N)n1 [ceftriaxone]
bacterial growth from cultured kidneys [4]: lack of bacterial growth | collagen deposition in the kidneys (percentage of green pigment per area of entire kidney) [5]: significantly higher

O=c1cccc2n1C[C@@H]1CNC[C@H]2C1 [cytisine]
relative expression of collagen 1 (Col1) [6]: reduced the expression; also recorded: significantly decreased | relative expression of collagen 3 (Col3) [6]: reduced the expression; also recorded: significantly decreased | relative expression of smooth muscle actin (Sma) [6]: reduced the expression; also recorded: significantly decreased | relative expression of vimentin (Vim) [6]: reduced the expression; also recorded: significantly decreased | relative expression of collagen 1 (Col1) ([6]; listed as Cytisine): significantly decreased | relative expression of collagen 3 (Col3) ([6]; listed as Cytisine): significantly decreased | relative expression of smooth muscle actin (Sma) ([6]; listed as Cytisine): significantly decreased | relative expression of vimentin (Vim) ([6]; listed as Cytisine): significantly decreased | expression of pro-fibrotic genes / genetic markers of testicular fibrosis ([6]; long term (30 day) outcome, genes not itemised): decreased expression of pro-fibrotic genes | CD45+ immune cells in the torsed testis [7]: significantly decreased CD45+ immune cells; also recorded: decreases the number of CD45+ cells | collagen content of testis (trichrome staining, percentage of collagen) [8]: untreated group had significantly higher collagen content; also recorded: reduced histologic evidence of testicular fibrosis | collagen content of testis (trichrome staining, percentage of collagen) ([8]; listed as Cytisine): significantly higher percentage of collagen in the untreated animals | testicular atrophy (weight of torsed testis vs contralateral control testis) ([9]; drug given an hour after the onset of torsion): limited long term testicular atrophy | testicular atrophy (weight of torsed testis vs contralateral control testis) ([9]; drug given an hour after the onset of torsion, listed as Cytisine): limited testicular atrophy | testicular atrophy (weight of torsed testis vs contralateral control testis) ([9]; drug given an hour prior to torsion, p<0.05): significantly less testicular atrophy; also recorded: decreased testicular atrophy | activation of α7nAChR at clinically reached concentrations (α7nAChR): do not activate α7nAChR | myeloperoxidase activity in testis [10]: decreased levels of myeloperoxidase activity | reduced glutathione levels in testis [10]: increased levels reduced glutathione | acute immune infiltrate after warm renal ischemia [3, 12]: reduced the acute immune infiltrate | long term renal fibrosis after warm renal ischemia [3, 12]: prevented long term renal fibrosis | long term renal function after warm renal ischemia [3, 12]: preserved long term renal function
